Common to all, as to type: cell-based
The subject of test [1] is nine gram-positive organisms and the yeast/fungus Candida. The test is described as follows: MIC, broth dilution, over all organisms (Examples I/II). Here is the method:
In order to establish comparative bactericidal and fungicidal results with homologous fatty acids, a series of experiments was performed with thirty straight-chain fatty acids and derivatives thereof. Eight different gram-negative and twelve different gram-positive organisms, representing a very broad spectrum of organisms, were used in these experiments including the fungus Candida (a yeast). Additionally, fatty acids were chosen to show the effects of saturation versus unsaturation, in the fatty acid claim. Standard solutions of the fatty acids and their derivatives were prepared by first dissolving the weighed compounds in 1 to 2 ml of 95% ethanol and immediately pouring this solution into 200 ml of Tripticase Soy Broth. These lipid compounds which are insoluble in water and broth precipitated into very small crystals or droplets. The tubes containing the suspension were warmed to approximately 70° C and were then placed in an ultrasonic tank for further solubilization of the lipid derivatives.
Standard solutions (or suspensions) at 1,000 μg/ml were twofold serially diluted with additional broth to a concentration of 125 μg/ml. A 4-ml amount of each dilution was then quickly, and with constant agitation, dispensed into appropriately labeled screw-capped glass tubes (16 by 125 mm). The tubes were sterilized with steam at 15 psi for 15 minutes. After sterilization, all tubes were cooled and incubated overnight at 35° C to insure sterility.
All compounds were compared on a molar (micromoles/milliliter) rather than on a mass basis. In the following lists of organisms used, those followed by a parenthetical number are registered with the American Type Culture Collection (ATCC); the remainder were isolates from Providence Hospital or Northland Laboratory.
Staphylococcus aureus, S. epidermidis, beta-hemolytic streptococci (Group A and non-group A), group D streptococcus, Bacillus subtilis (6051), Sarcina lutea (9431), Micrococcus sp., Candida albicans, Nocardia asteroids (3308), Corynebacterium sp. (10700), and pneumococcus (63001).
One drop (0.04 ± 0.01 ml) of an 18-hr broth culture containing 10^7 and 10^9 organisms/ml was added to each dilution of the test compound, as well as to a tube of plain broth which served as the positive control. After inoculation, the contents of each tube were well mixed, and the tubes were incubated at 35° C in a 5% carbon dioxide + […] atmosphere.
The MIC is defined as the lowest concentration of compound at which no […] evidence of growth was observed when turbidity of the inoculated broth dilutions was compared with control tubes. […] Only a one-tube difference between the bactericidal and bacteriostatic concentrations was normally observed.
Table 5 presents a comparison of the C10 and C12 free acids and their glyceryl derivatives, and Table 6 gives the corresponding ranges of activity.
Standard solutions (1000 μg/ml) of three fatty acids and polyglycerol esters thereof were prepared as described in Example I. Also sucrose esters were prepared by transferring the weighed compounds (0.2 gm. dissolved in 1 ml absolute methanol) into 200 ml of sterile Trypticase Soy Broth (TSB). These standard solutions (1000 μg/ml) were twofold serially diluted with additional sterile broth to a concentration of 125 μg/ml. A 3.8 aliquot of each dilution was asceptically delivered into sterile screw-capped culture tubes. All tubes were incubated overnight at 36° C to insure sterility. The microorganisms used in this example were the same as those used in Example I.
The inoculum, 0.05 ml of an 13-24 hour TSB culture (approximately 10^9 organisms/ml) was asceptically delivered into all dilutions of the compounds, mixed well, and incubated at 36° C. […]
For orientation: Broth dilution looks for growth in wells or tubes with falling amounts of substance.

In another test the test system is Candida albicans. The test can be described thus: MIC on mass basis (Example V procedure). The protocol:
(§1) The essential procedure of Example I was followed with a series of phenolic compounds, with the exception that the test method was conducted on a mass (μg/ml) basis rather than a molecular (mol/ml) basis of the foregoing tests, since the long established phenol-coeffecient test is on a mass rather than molecular basis. Additionally, a different but closely related group of organisms were used in this test, in order to give a complete representative span on gram-negative, gram-positive and fungus organisms. Additionally, the phenolic derivatives chosen for test purposes include a number of derivatives which are presently accepted by the FDA as food-grade phenolic microbicides.
(§2) The same procedure of Example V was repeated but with combinations of mono-laurin (GML).
(§3) The procedure of Example V was repeated with combinations of glycerol mono-laurin (GML) and ethylenediamine tetraacetic acid (EDTA) as the calcium salt and in combination with BHA.

Another test deals with Escherichia coli. The test can be described thus: MIC on mass basis (Example V procedure). The conditions noted are these: Escherichia coli. Here is the method:
as §1, §2, §3

The test system of the next test is Nocardia asteroides. The test is described as follows: MIC on mass basis (Example V procedure). The protocol: as §1, §2, §3
Another test deals with Pseudomonas aeruginosa. The test is described as follows: MIC on mass basis (Example V procedure). Here is the method:
as §1, §2, §3

The subject of the next test is Saccharomyces cerevisiae. The test can be described thus: MIC on mass basis (Example V procedure). The conditions noted are these: Saccharomyces cerevisiae. The protocol:
as §1, §2, §3

The next test concerns Staphylococcus aureus. The test can be described thus: MIC on mass basis (Example V procedure). The protocol: as §1, §2, §3
A further test has as its system Corynebacterium sp. The test can be described thus: MIC on mass basis (Example V procedure). The protocol:
as §1

Test [2] deals with Streptococcus faecalis (Group D). The test can be described thus: MIC on mass basis (Example V procedure). The conditions noted are these: Enterococcus faecalis. The protocol:
as §1

A further test has as its system Streptococcus pyogenes. The test can be described thus: MIC on mass basis (Example V procedure). Here is the method:
as §1

Setting [3] is: Candida albicans, Table 12, Candida albicans, read-out: MIC.
Setting [4] is: Table 12, Eschericia coli, read-out: MIC.
The mark [5] stands for this setting: Table 12, Nocardia asteroides, read-out: MIC.
Where [6] appears, read: Table 16, Nocardia asteroides, no unit in table.
The mark [7] stands for this setting: Pseudomonas aeruginosa, Table 12, Pseudomonas aeruginosa, read-out: MIC.
[8] abbreviates: Table 12, Saccharomyces cerevisiae, read-out: MIC.
[9] abbreviates: Table 16, Saccharomyces cerevisiae, no unit in table, read-out: MIC.
[10] abbreviates: Staphylococcus aureus, Table 12, Staphylococcus aureus, read-out: MIC.
Setting [11] is: Table 12, Corynebacterium sp., read-out: MIC.
[12] abbreviates: Table 12, Streptococcus faecalis (Group D), read-out: MIC.
The mark [13] stands for this setting: Table 12, Streptococcus pyogenes, read-out: MIC.

In brackets after ≈: the same amount, converted by molar mass. Read-outs that look alike come from different tables or passages of the source.

With `CCCCCCCCCC(=O)O` [Capric acid, capric acid], the MIC in test [1] (Table 2, range over the organisms of Table 1, read-out: MIC range) lay in the range of 1450 to 5800 µM (≈ 250 to 999 µg/mL). Also, the MIC range in test [1] (Table 6, range over the organisms of Table 5, NI = no inhibition) is recorded as 1.45 - 5.8 μ/Mol/ml.
Compound Triglycerol oleate showed an MIC in test [1] (Table 7, one entry across all (oleic acid: all other than Grp. A) organisms, NO INHIBITION, max. tested listed) of more than 1980 µM. Besides, in [1] (at the concentration tested), the Activity in words result was “no activity at the concentration tested”.
Regarding `Cc1cc(C(C)(C)C)c(O)c(C(C)(C)C)c1` [BHT, 2,6-di-tert-butyl-4-methylphenol], the MIC with Candida albicans (setting [3]) was more than 5000 µg/mL; with Candida albicans (Candida albicans, Table 16, Candida albicans, no unit in table, read-out: MIC), more than 1000 µg/mL; in the test on Escherichia coli (setting [4]) it was more than 5000 µg/mL; with Escherichia coli (Table 16, Escherichia coli, no unit in table (Example 5 procedure, mass basis), read-out: MIC), more than 1000 µg/mL; in the test on Nocardia asteroides (setting [5]) it was 1000 µg/mL; in the test on Nocardia asteroides (setting [6]) it was 1,000. In addition, the MIC in the test with Pseudomonas aeruginosa (setting [7]) is more than 5000 µg/mL; in the test on Pseudomonas aeruginosa (Pseudomonas aeruginosa, Table 16, Pseudomonas aeruginosa, no unit in table, read-out: MIC), more than 1000 µg/mL; in the test on Saccharomyces cerevisiae (setting [8]) it was more than 5000 µg/mL; in the test on Saccharomyces cerevisiae (setting [9]), more than 1000 µg/mL; with Staphylococcus aureus (setting [10]), more than 5000 µg/mL; with Staphylococcus aureus (Staphylococcus aureus, Table 16, Staphylococcus aureus, no unit in table, read-out: MIC), more than 1000 µg/mL. The MIC was 100 µg/mL (≈ 0.454 mM) in the test on Corynebacterium sp. (setting [11]); 100 against Corynebacterium sp. (Table 16, Corynebacterium sp., no unit in table); more than 5000 µg/mL in test [2] (setting [12]); more than 1000 µg/mL in test [2] (Table 16, Streptococcus faecalis (Group D), no unit in table, read-out: MIC); 1000 µg/mL (≈ 4.54 mM) with Streptococcus pyogenes (setting [13]); 1,000 in the test on Streptococcus pyogenes (Table 16, Streptococcus pyogenes, no unit in table).
On to `CCCCCCCCCCCCCCCCCC(=O)O` [Stearic, stearic acid], for which the Inhibition in words entry in [1] (saturated acids, Table 1) was “not inhibitory at all”.
In the case of `CCc1cc(C(C)(C)C)c(O)c(C(C)(C)C)c1` [C2, 2,6-di-tert-butyl-4-ethylphenol], the MIC is more than 5000 µg/mL in the test with Candida albicans (setting [3]); more than 5000 µg/mL in the test on Escherichia coli (setting [4]); 500 µg/mL in the test with Nocardia asteroides (setting [5]); more than 5000 µg/mL with Pseudomonas aeruginosa (setting [7]); more than 5000 µg/mL in the test with Saccharomyces cerevisiae (setting [8]); 5000 µg/mL with Staphylococcus aureus (setting [10]). The MIC came to 1000 µg/mL (≈ 4.27 mM) with Corynebacterium sp. (setting [11]), 2500 µg/mL (≈ 10.7 mM) in test [2] (setting [12]) and 1000 µg/mL (≈ 4.27 mM) in the test with Streptococcus pyogenes (setting [13]).
Regarding `CCCCCCCCCC(=O)OCC(O)CO` (stereo not drawn) [1-mono-caprin], the MIC in [1] (Table 6, range over the organisms of Table 5, NI = no inhibition, read-out: MIC range) lay in the range of 100 to 2000 µM (≈ 24.6 to 493 µg/mL).
`CCCCCCCCCCc1cc(C(C)(C)C)c(O)c(C(C)(C)C)c1` [C10, 2,6-di-tert-4-decylphenol]: the MIC with Candida albicans (setting [3]) is more than 5000 µg/mL; with Escherichia coli (setting [4]), more than 5000 µg/mL; in the test with Nocardia asteroides (setting [5]), 5000 µg/mL; in the test with Pseudomonas aeruginosa (setting [7]), more than 5000 µg/mL; in the test with Saccharomyces cerevisiae (setting [8]), more than 5000 µg/mL; with Staphylococcus aureus (setting [10]) it was more than 5000 µg/mL. For the same compound, the figures for the MIC (with Corynebacterium sp. (setting [11]); in [2] (setting [12]); in the test on Streptococcus pyogenes (setting [13])) were 5000 µg/mL (≈ 14.4 mM), more than 5000 µg/mL and more than 5000 µg/mL, respectively.
`O=C(O)CN(CCN(CC(=O)O)CC(=O)O)CC(=O)O` [EDTA, ethylenediamine tetraacetic acid]: the MIC is 5000 µg/mL in the test on Candida albicans (Candida albicans, read-out: MIC of EDTA alone); > 1,000 in the test with Candida albicans (Table 16, Candida albicans, no unit in table); more than 1000 µg/mL in the test on Escherichia coli (Table 16, Escherichia coli, no unit in table (Example 5 procedure, mass basis)); more than 10000 µg/mL in the test on Escherichia coli (read-out: MIC of EDTA alone, Table 17, 0 amount of GML); 500 µg/mL in the test on Nocardia asteroides (Nocardia asteroides, read-out: MIC of EDTA alone); 1,000 in the test with Nocardia asteroides (setting [6]). Besides, the MIC is 5000 µg/mL in the test with Pseudomonas aeruginosa (Pseudomonas aeruginosa, read-out: MIC of EDTA alone); > 1,000 with Pseudomonas aeruginosa (Table 16, Pseudomonas aeruginosa, no unit in table); 1000 µg/mL in the test on Saccharomyces cerevisiae (setting [9]); 1000 µg/mL in the test with Saccharomyces cerevisiae (Table 17, 0 amount of GML, read-out: MIC of EDTA alone); 5000 µg/mL in the test with Staphylococcus aureus (Staphylococcus aureus, read-out: MIC of EDTA alone); > 1,000 in the test on Staphylococcus aureus (Table 16, Staphylococcus aureus, no unit in table). Also, the MIC is 1000 µg/mL (≈ 3.42 mM) with Corynebacterium sp. (Corynebacterium); 1000 µg/mL in the test on Corynebacterium sp. (Corynebacterium, read-out: MIC of EDTA alone); more than 1000 µg/mL in test [2]; 5000 µg/mL in test [2] (read-out: MIC of EDTA alone); 1000 µg/mL (≈ 3.42 mM) in the test with Streptococcus pyogenes (Streptococcus pyogenes); 1000 µg/mL in the test on Streptococcus pyogenes (Streptococcus pyogenes, read-out: MIC of EDTA alone).

(Values after US4067997A, “Synergistic microbecidal composition and method” (priority 1976, dated 1978).)
